Data set [1] in a line: clinical theophylline blood level on 4th day, theophylline alone or with idrocilamide (Tables 3 and 4). The note with it: inferred from clinical blood levels. The method, then:
A series of comparative clinical tests were conducted. Five male adults asthma patients took a simultaneous dose of 200 mg theophylline and 100 mg idocrilamide twice a day orally, at 0800 and 2000 hours. On the 4th day, after establishment of a state of equilibrium, the theophylline blood level in the patients under treatment was determined at various times. The determinations were made by highpressure liquid chromatography (Waters apparatus, Lichrosorb RP 18 adsorbent of Merck, methanol, formamide, monopotassium phosphate solvent. Detection by UV spectrophotometry).
The time in hours (t) after the morning dose is plotted on the x-axis, the time 0 corresponding to the dose of medicine on the 4th day. The theophylline blood concentrations in mg/l (th mg/l) are plotted on the y-axis.

A short description of data set [2]: oral toxicity (LD50) in mice. The note with it: mouse, in vivo, read-out: LD50 orally in mice.
Data set [3] concerns cyclic AMP. The note with it: cited from earlier work.
For data set [4] the following is noted: cited from earlier work.
The test system of data set [5] is phosphodiesterase. The note with it: cited from earlier work.
Data set [6] relates to mastocytes. The note with it: hypersensitivity reactions; cited from earlier work.
The conditions of data set [7]: cited from earlier work. This is another data set of the same source.
For data set [8], the system named is pulmonary vital capacity. The note with it: digestive disorders, nervous troubles, cardiac troubles, neurological symptoms; cited from earlier work.
Data set [9] in a line: in vivo. The note with it: rat, po, 15 mg/kg. As to the method:
Groups of the so-treated animals were killed by carotid section 15', 30', 1 h, 2 h, 3 h, 4 h, 6 h, and 8 h after administration of the theophylline. The blood was collected in herparinized, centrifuged tubes, and the plasma was decanted. The theophylline blood level was determined in plasma samples after extraction by liquid chromatography.

For data set [10], the system named is bronchial smooth muscles. The note with it: cited from earlier work.

Several values for one entry are separate records, joined by “and”; a condition that tells them apart may be missing. Identical values can stand only once. Like-named read-outs stand apart in the source and are kept apart here.

Data on 10 molecules can be found in patent US4512994A, “Long-acting theophylline in medicinal form” (priority 1982, dated 1985).

`O=C(C=Cc1ccccc1)NCCO` [Compound I, N-(2-hydroxyethyl)cinnamamide]: the “action mechanism on theophylline metabolism” value in data set [1] is reported as “interference of idrocilamide on the metabolism of theophylline”. Moreover, the LD50 (as a rule, the dose at which mortality reaches 50%) in data set [2] came out at 3000 mg/kg.
In the case of `O=C(C=Cc1ccc(Cl)cc1)NCCO` [Compound II, N-(2-hydroxyethyl)-4-chlorocinnamamide], the median lethal dose (LD50) in data set [2] stood at 1600 mg/kg.
With `CN(CCO)C(=O)C=Cc1ccccc1` [Compound III, N-methyl, N-(2-hydroxyethyl)cinnamamide], the 50% lethal dose (LD50) in [2] came to 3000 mg/kg.
Turning to `CC(CO)NC(=O)C=Cc1ccccc1` (stereo not shown) [Compound IV, N-[2-(1-hydroxypropyl)]cinnamamide], the LD50 in [2] is 3200 mg/kg.
As to `CC1(C)OCCN1C(=O)C=Cc1ccccc1` [Compound IX, 3-cinnamoyl-2,2-dimethyloxazolidine], in data set [2], the median lethal dose (LD50) is above 3200 mg/kg.
With `O=C(C=Cc1ccc(F)cc1)NCCO` [Compound V, N-(2-hydroxyethyl)-4-fluorocinnamamide], the LD50 in [2] was above 3200 mg/kg.
As to `CC(=O)c1ccc(C=CC(=O)NCCO)cc1` [Compound VI, N-(2-hydroxyethyl)-4-acetylcinnamamide], the LD50 in data set [2] worked out at 3200 mg/kg.
`CC1(C)OCCN1C(=O)C=Cc1ccc(Cl)cc1` [Compound VII, 3-(4-chlorocinnamoyl)-2,2-dimethylloxazolidine]: the LD50 in data set [2] is above 3200 mg/kg.
With `CC1(C)OCCN1C(=O)C=Cc1ccc(F)cc1` [Compound VIII, 2,2-dimethyl-3-(4-fluorocinnamoyl) oxazolidine], the LD50 in data set [2] came to 2000 mg/kg.
Turning to `Cn1c(=O)c2[nH]cnc2n(C)c1=O` [theophylline, 1,3-dimethylxanthine], the “tissue increase of cyclic AMP” value in [3] was “tissue increase of cyclic AMP”. Besides, the metabolism entry in data set [4] (in vivo) was “metabolized at the hepatic level to give inactive metabolites eliminated by the kidneys”. Also, in data set [4] (normal adult), the half-life (in general, how long it takes for the measured level to halve) was ~6 h and 4 h. In data set [4], the oral absorption result is “very good”. The oral absorption result in [4] (listed as Theophylline) is recorded as “absorbed very well orally”. The rectal absorption entry in data set [4] (rectal) was “very irregular”. For the same molecule, the inhibition of phosphodiesterase entry in [5] was “competitive inhibition”. In addition, the “inhibiting action on mastocytes” value in [6] is “partially inhibiting their degranulation”. Moreover, in data set [7], the solubility in water entry was “slightly soluble in water”. Besides, in data set [8], the “concentration above which intolerance signs can appear” value was above 20 mg/L. In [9], the AUC (usually concentration integrated over time) at 8 h was determined as 95100 ng·h/mL; the total exposure AUC(0-inf) (in general, total exposure, with the tail of the curve extrapolated) was 117 µg·h/mL; the concentration peaked (Cmax) at 20300 ng/mL; the concentration at 0.25 h was 17500 ng/mL. In data set [9], this molecule had a concentration at 0.5 h of 20300 ng/mL, a concentration at 1 h of 18900 ng/mL, a concentration at 2 h of 16700 ng/mL and a concentration at 3 h of 13900 ng/mL. In [9], this molecule gave a concentration at 4 h of 12000 ng/mL, a concentration at 6 h of 8040 ng/mL, a concentration at 8 h of 4320 ng/mL and a half-life of 208 min. Besides, the “effect of intrapulmonary administration by aerosol” value in [10] (aerosol) was “ineffective”. Besides, in [10], the bronchodilating action result is listed as “active toward all bronchoconstrictive agents”.
